Read-outs that look alike come from different tables or passages of the source.
Legend:
TNFα = assay: IRAK4 Monocyte TNFα Cell Based Assay (LPS-stimulated, TR-FRET TNFα detection); design: species or system human; conditions: Homo sapiens, Monocyte, read-out: EC50 MONO TNF HTRF
In short: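 Monocytes (5,000 cells/well) treated with compound (0.1% DMSO) for 1 hour at 37° C, then stimulated with 50 pg/ml LPS for 4 hours. TNFα in medium quantified by TR-FRET two-antibody detection after overnight room-temperature incubation. Percent of control calculated against unstimulated (0%) and LPS-stimulated (100%) cells.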

IRAK4 enzyme = molecular target: T1, IRAK4 enzyme (Homo sapiens, UniProt Q9NWZ3); assay: IRAK4 Biochemical Assay (TR-FRET, STK1 KinEASE); conditions: 500 μM ATP, Table 2 second part (compounds 33-343), read-out: IC50 IRAK4-HTBS
T1 construct: purchased Carna Biosciences, Chuo-ku, Kobe, Japan
T1 sequence (Q9NWZ3 1-460): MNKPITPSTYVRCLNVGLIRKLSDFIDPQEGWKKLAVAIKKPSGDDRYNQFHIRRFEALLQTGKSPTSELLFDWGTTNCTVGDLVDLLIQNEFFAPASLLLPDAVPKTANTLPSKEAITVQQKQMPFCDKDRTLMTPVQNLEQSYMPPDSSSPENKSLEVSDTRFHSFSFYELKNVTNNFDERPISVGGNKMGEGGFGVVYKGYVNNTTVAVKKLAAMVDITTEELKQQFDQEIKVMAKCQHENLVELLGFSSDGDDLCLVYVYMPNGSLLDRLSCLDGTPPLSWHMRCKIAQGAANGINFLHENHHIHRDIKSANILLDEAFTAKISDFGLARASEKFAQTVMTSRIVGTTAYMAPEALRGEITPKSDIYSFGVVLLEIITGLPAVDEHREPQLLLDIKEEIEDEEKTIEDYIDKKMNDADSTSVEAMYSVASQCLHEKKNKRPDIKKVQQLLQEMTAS
In short: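 Human IRAK4 (0.75 nM) preincubated 15 min with compound and 2 μM STK1 peptide, then reacted 120 min at room temperature with 500 μM ATP in HEPES pH 7.0 buffer with MgCl2 and DTT. EDTA stop with Cryptate anti-phosphopeptide antibody and tracer, 60 min; TR-FRET read as 665/615 nm ratio.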

[1] = human monocytes, LPS-stimulated, Table 2 second part (compounds 33-343)

With C[C@H](C#N)Nc1cc(-c2ccc3cc(C#N)cnn23)ncc1-c1nnc([C@H]2CC[C@H](NC(=O)C3CC3)CC2)s1 [Example 160, N-((1R,4r)-4-(5-(4-(((R)-1-cyanoethyl)amino)-6-(3-cyanopyrrolo[1,2-b]pyridazin-7-yl)pyridin-3-yl)-1,3,4-thiadiazol-2-yl)cyclohexyl)cyclopropanecarboxamide] the EC50 (TNFα; [1]) was 2.8 nM and the IC50 (IRAK4 enzyme) was 0.52 nM.
CC(=O)N[C@@H]1C[C@H]2CC[C@@H](C1)N2c1nnc(-c2cnc(-c3ccc4cc(C#N)cnn34)cc2NC(C)C)s1 [Example 56, N-((1R,3s,5S)-8-(5-(6-(3-cyanopyrrolo[1,2-b]pyridazin-7-yl)-4-(isopropylamino)pyridin-3-yl)-1,3,4-thiadiazol-2-yl)-8-azabicyclo[3.2.1]octan-3-yl)acetamide] was tested, and the EC50 (TNFα) was 8.3 nM and the IC50 (IRAK4 enzyme) was 0.49 nM.
Work on CC(=O)NC[C@H]1C[C@@H](c2nnc(-c3cnc(-c4ccc5cc(C#N)cnn45)cc3NC(C)C)s2)C1 [Compound 289, N-(((1s,3s)-3-(5-(6-(3-cyanopyrrolo[1,2-b]pyridazin-7-yl)-4-(isopropylamino)pyridin-3-yl)-1,3,4-thiadiazol-2-yl)cyclobutyl)methyl)acetamide] yielded an EC50 (TNFα; [1]) of 21.4 nM and an IC50 (IRAK4 enzyme) of 0.24 nM.
CC(C)Nc1cc(-c2ccc3cc(C#N)cnn23)ncc1-c1nnc(NCC(C)(C)O)s1 [Example 37, 7-(5-(5-((2-hydroxy-2-methylpropyl)amino)-1,3,4-thiadiazol-2-yl)-4-(isopropylamino)pyridin-2-yl)pyrrolo[1,2-b]pyridazine-3-carbonitrile] gave an EC50 (TNFα; [1]) of no less than 10000 nM and an IC50 (IRAK4 enzyme) of no less than 1000 nM.
In the case of C[C@]1(O)C[C@@H](c2nnc(-c3cnc(-c4ccc5cc(C#N)cnn45)cc3NC3COC3)s2)C1 [Example 200, 7-(5-(5-((1s,3s)-3-hydroxy-3-methylcyclobutyl)-1,3,4-thiadiazol-2-yl)-4-(oxetan-3-ylamino)pyridin-2-yl)pyrrolo[1,2-b]pyridazine-3-carbonitrile], the EC50 (TNFα; [1]) is reported as 24.1 nM and the IC50 (IRAK4 enzyme) is reported as 0.63 nM.
Work on N#Cc1cnn2c(-c3cc(NC4COC4)c(-c4nnc([C@H]5CC[C@H](NC(=O)C6CC6)CC5)s4)cn3)ccc2c1 [Example 135, N-((1r,4r)-4-(5-(6-(3-cyanopyrrolo[1,2-b]pyridazin-7-yl)-4-(oxetan-3-ylamino)pyridin-3-yl)-1,3,4-thiadiazol-2-yl)cyclohexyl)cyclopropanecarboxamide] yielded an EC50 (TNFα; [1]) of 10.5 nM and an IC50 (IRAK4 enzyme) of 0.52 nM.
CC(C)Nc1cc(-c2ccc3cc(C#N)cnn23)ncc1-c1nnc([C@H]2CC[C@H](NC(=O)C(C)(C)O)CC2)s1 [Example 315, N-((1r,4r)-4-(5-(6-(3-cyanopyrrolo[1,2-b]pyridazin-7-yl)-4-(isopropylamino)pyridin-3-yl)-1,3,4-thiadiazol-2-yl)cyclohexyl)-2-hydroxy-2-methylpropanamide] was tested, and the EC50 (TNFα; [1]) was 10.9 nM and the IC50 (IRAK4 enzyme) was 0.77 nM.
CC(=O)N[C@@H]1[C@@H]2CC[C@H]1CN(c1nnc(-c3cnc(-c4ccc5cc(C#N)cnn45)cc3NC3(C)COC3)s1)C2 [Example 144, N-((1R,5S,8s)-3-(5-(6-(3-cyanopyrrolo[1,2-b]pyridazin-7-yl)-4-((3-methyloxetan-3-yl)amino)pyridin-3-yl)-1,3,4-thiadiazol-2-yl)-3-azabicyclo[3.2.1]octan-8-yl)acetamide] gave an EC50 (TNFα; [1]) of 2.3 nM and an IC50 (IRAK4 enzyme) of 0.63 nM.
For CC(=O)N[C@H]1C[C@H]2CC[C@@H](C1)N2c1nnc(-c2cnc(-c3ccc4cc(C#N)cnn34)cc2NC(C)C)s1 [Example 55, N-((1R,3r,5S)-8-(5-(6-(3-cyanopyrrolo[1,2-b]pyridazin-7-yl)-4-(isopropylamino)pyridin-3-yl)-1,3,4-thiadiazol-2-yl)-8-azabicyclo[3.2.1]octan-3-yl)acetamide], the EC50 (TNFα) was 115 nM and the IC50 (IRAK4 enzyme) was 0.54 nM.
CC(C)(O)C(=O)N[C@H]1CC[C@@H](c2nnc(-c3cnc(-c4ccc5cc(C#N)cnn45)cc3NC3COC3)s2)CC1 [Compound 311, N-((1s,4s)-4-(5-(6-(3-cyanopyrrolo[1,2-b]pyridazin-7-yl)-4-(oxetan-3-ylamino)pyridin-3-yl)-1,3,4-thiadiazol-2-yl)cyclohexyl)-2-hydroxy-2-methylpropanamide] showed an EC50 (TNFα; [1]) of 22.6 nM and an IC50 (IRAK4 enzyme) of 0.8 nM.

Source: patent US12060351B2, “Thiadiazole IRAK4 inhibitors” (Gilead Sciences, Inc., priority 2018, dated 2024)
